The text below walks through data of patent US8513232B2, “Substituted spirocyclic piperidine derivatives as histamine-3 (H3) receptor ligands” (Cephalon, Inc., priority 2008, dated 2013).

As a reminder, the Ki is a measure of affinity in units of concentration, obtained from inhibition or displacement. In general, melting point refers to the temperature, or range, at which the solid turns liquid.

One series has as its target T1, human H3 receptor (Homo sapiens, UniProt Q9Y5N1).
T1 construct: expressed in transfected cells
Put plainly: Human H3 radioligand binding ([3H]-N-alpha-methylhistamine, SPA). The note with it: read-out: Human H3 Ki. An outline of the steps:
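Compounds (0.01 nM-30 μM) competed with approximately 1 nM [3H]-N-alpha-methylhistamine for human H3 receptor in membranes of stably transfected CHO cells, 10 μg protein per well, in Tris-HCl pH 7.4/MgCl2/BSA buffer for 4 h at room temperature. Bound radioligand measured by scintillation proximity; 10 μM clobenpropit gave non-specific binding.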

Series [1] concerns the target T2, rat histamine H3 receptor (Rattus norvegicus, UniProt Q9QYN8).
T2 construct: encoding the entire 445-amino-acid rat histamine H3 receptor; expressed in transfected cells; membrane preparation
Description: Rat H3 radioligand binding ([3H]-N-alpha-methylhistamine, SPA). The note with it: read-out: Rat H3 kI. An outline of the steps:
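SPA-bead binding assay using [3H]-N-alpha-methylhistamine (approximately 1 nM final) with test compounds from 0.01 nM to 30 μM. Rat H3 receptor membranes came from stably transfected CHO-A3 cells; incubation ran 4 h at room temperature, in the dark, in Tris pH 7.4 buffer with MgCl2 and BSA. Clobenpropit (10 μM) gave non-specific binding.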

T1 sequence (Q9Y5N1 whole entry): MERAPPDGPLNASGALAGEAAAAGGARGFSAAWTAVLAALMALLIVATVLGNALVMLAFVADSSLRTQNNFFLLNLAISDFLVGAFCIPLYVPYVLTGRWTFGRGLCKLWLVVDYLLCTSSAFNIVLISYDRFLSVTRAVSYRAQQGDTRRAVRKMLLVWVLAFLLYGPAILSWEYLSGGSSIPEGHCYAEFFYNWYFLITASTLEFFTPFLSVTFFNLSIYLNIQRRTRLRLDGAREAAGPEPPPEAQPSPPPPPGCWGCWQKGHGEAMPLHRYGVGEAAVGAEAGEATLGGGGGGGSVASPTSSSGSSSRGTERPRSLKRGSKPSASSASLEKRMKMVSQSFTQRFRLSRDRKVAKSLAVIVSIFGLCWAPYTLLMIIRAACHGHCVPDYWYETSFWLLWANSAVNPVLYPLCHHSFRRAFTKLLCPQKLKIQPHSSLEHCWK
T2 sequence (Q9QYN8 whole entry): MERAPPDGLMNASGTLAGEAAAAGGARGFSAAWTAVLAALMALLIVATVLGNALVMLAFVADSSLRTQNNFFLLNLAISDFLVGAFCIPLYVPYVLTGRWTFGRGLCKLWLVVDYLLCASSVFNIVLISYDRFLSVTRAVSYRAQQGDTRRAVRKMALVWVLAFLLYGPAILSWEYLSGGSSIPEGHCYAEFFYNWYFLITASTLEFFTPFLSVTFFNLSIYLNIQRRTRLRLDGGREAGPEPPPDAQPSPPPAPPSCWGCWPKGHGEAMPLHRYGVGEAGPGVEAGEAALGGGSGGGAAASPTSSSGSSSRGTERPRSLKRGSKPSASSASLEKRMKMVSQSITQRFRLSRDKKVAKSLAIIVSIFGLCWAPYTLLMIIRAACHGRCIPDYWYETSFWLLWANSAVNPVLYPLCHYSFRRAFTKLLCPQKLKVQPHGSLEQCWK

Compound `[O-][S+]1CCC(c2ccc3c(c2)COC2(CCN(C4CCC4)CC2)O3)CC1` (stereo not drawn) [Example 473] had a melting point of 187 to 189 °C. Also, the Ki at human H3 receptor was below 200 nM. Besides, the Ki in series [1] was below 200 nM.
Regarding `O=c1cc(-c2ccc3c(c2)COC2(CCN(C4CCC4)CC2)O3)cc[nH]1` [Example 475], the melting point lay in the range of 211 to 213 °C. Also, on human H3 receptor, the Ki was below 200 nM. Besides, in series [1], the Ki is below 200 nM.
Turning to `O=c1cccc(-c2ccc3c(c2)COC2(CCN(C4CCC4)CC2)O3)[nH]1` [Example 476], the melting point fell in the range of 207 to 209 °C. Besides, the Ki at human H3 receptor was below 200 nM. Also, the Ki in series [1] is below 200 nM.
For the compound `OC1(c2ccc3c(c2)COC2(CCN(C4CCC4)CC2)O3)CCOCC1` [Example 477], the melting point fell in the range of 157 to 159 °C. In addition, the Ki on human H3 receptor was below 200 nM. Besides, the Ki in series [1] was below 200 nM.
For `C1=C(c2ccc3c(c2)COC2(CCN(C4CCC4)CC2)O3)CCOC1` [Example 478], the melting point lay within 168 to 169 °C. Also, the Ki at human H3 receptor was below 200 nM. Also, the Ki in series [1] was below 200 nM.
`c1cc2c(cc1C1CCOCC1)COC1(CCN(C3CCC3)CC1)O2` [Example 479] showed a melting point of 249 to 251 °C. On human H3 receptor, the Ki is below 200 nM. Also, the Ki in series [1] was below 200 nM.
`c1cc2c(cc1C1CCSCC1)COC1(CCN(C3CCC3)CC1)O2` [Example 480] showed a melting point of 153 to 155 °C. Further, the Ki on human H3 receptor is below 200 nM. Further, the Ki in series [1] is below 200 nM.
`COc1ccc(Oc2ccc3c(c2)CCC2(CCN(C4CCC4)CC2)O3)cn1` [Example 481] had a melting point of 232 to 234 °C. Also, the Ki at human H3 receptor was below 200 nM. The Ki in series [1] is below 200 nM.
`O=C(C1CC(O)(c2ccc3c(c2)COC2(CCN(C4CCC4)CC2)O3)C1)N1CCCC1` (stereo not drawn) [Example 482] had a melting point of 157 to 159 °C. For the same compound, the Ki on human H3 receptor is below 200 nM. The Ki in series [1] is below 200 nM.
Turning to `COc1ccnc(-c2ccc3c(c2)COC2(CCN(C4CCC4)CC2)O3)n1` [Example 483], the melting point lay in the range of 100 to 102 °C. Also, the Ki at human H3 receptor is below 200 nM. Moreover, in series [1], the Ki is below 200 nM.
Regarding `O=c1ccc(Oc2ccc3c(c2)CCC2(CCN(C4CCC4)CC2)O3)c[nH]1` [Example 485], the melting point lay in the range of 284 to 286 °C. Further, the Ki on human H3 receptor was below 200 nM. Moreover, in series [1], the Ki is below 200 nM.
Compound `COc1cc(Oc2ccc3c(c2)CCC2(CCN(C4CCC4)CC2)O3)ccn1` [Example 486] gave a melting point of 125 to 127 °C. Further, on human H3 receptor, the Ki is below 200 nM. Moreover, in series [1], the Ki is below 200 nM.
The compound `CCOC(=O)C1CC=C(c2ccc3c(c2)COC2(CCN(C4CCC4)CC2)O3)CC1` (stereo not drawn) [Example 487] had a melting point of 263 to 265 °C. Besides, the Ki on human H3 receptor was below 200 nM. Besides, the inhibition constant Ki in series [1] was below 200 nM.
On to `O=c1[nH]cccc1-c1ccc2c(c1)COC1(CCN(C3CCC3)CC1)O2` [Example 488], for which the melting point was 167 to 169 °C. Besides, the Ki at human H3 receptor was below 200 nM. For the same compound, in series [1], the Ki was below 200 nM.
Consider `O=S1(=O)CCC(c2ccc3c(c2)COC2(CCN(C4CCC4)CC2)O3)CC1` [Example 489], for which the melting point is 210 to 211 °C. Further, on human H3 receptor, the Ki is below 200 nM. Further, the Ki in series [1] is below 200 nM.
`O=S1(=O)CCC(Oc2ccc3c(c2)CCC2(CCN(C4CCC4)CC2)O3)C1` (stereo not drawn) [Example 490] came in with a melting point of 252 to 254 °C. The Ki on human H3 receptor was below 200 nM. In addition, the Ki in series [1] was below 200 nM.
In turn, `O=S1(=O)CCC(c2ccc3c(c2)COC2(CCN(C4CCC4)CC2)O3)C1` (stereo not drawn) [Example 491] yielded a melting point of 151 to 152 °C. Moreover, the inhibition constant Ki on human H3 receptor was below 200 nM. The Ki in series [1] was below 200 nM.
In the case of `OC1(c2ccc3c(c2)COC2(CCN(C4CCC4)CC2)O3)CCC2(CC1)OCCO2` [Example 492], the melting point lay within 191 to 192 °C. On human H3 receptor, the Ki was below 200 nM. Also, in series [1], the Ki is below 200 nM.
In turn, `O=c1cc(Oc2ccc3c(c2)CCC2(CCN(C4CCC4)CC2)O3)cc[nH]1` [Example 493] returned a melting point of 186 to 188 °C. Also, the Ki on human H3 receptor is below 200 nM. For the same compound, in series [1], the Ki is below 200 nM.
Turning to `CNC(=O)C1CC(O)(c2ccc3c(c2)COC2(CCN(C4CCC4)CC2)O3)C1` (stereo not drawn) [Example 494], the melting point lay within 246 to 248 °C. In addition, the Ki at human H3 receptor is below 200 nM. For the same compound, the Ki in series [1] is below 200 nM.
As to `O=c1ncc(Oc2ccc3c(c2)CCC2(CCN(C4CCC4)CC2)O3)c[nH]1` [Example 495], the melting point is 259 to 261 °C. The Ki at human H3 receptor was below 200 nM. Further, the Ki in series [1] is below 200 nM.
`OC(c1ccc2c(c1)COC1(CCN(C3CCC3)CC1)O2)C1CCSCC1` (stereo not drawn) [Example 496] yielded a melting point of 85 to 90 °C. Further, the Ki on human H3 receptor is below 200 nM. For the same compound, in series [1], the Ki is below 200 nM.
`O=C1CC=C(c2ccc3c(c2)COC2(CCN(C4CCC4)CC2)O3)CC1` [Example 497] had a melting point of 153 to 155 °C. Moreover, on human H3 receptor, the Ki was below 200 nM. Moreover, the Ki in series [1] is below 200 nM.
The compound `OC1CCC(c2ccc3c(c2)COC2(CCN(C4CCC4)CC2)O3)CC1` (stereo not drawn) [Example 498] came in with a melting point of 150 to 153 °C. Moreover, the Ki at human H3 receptor is below 200 nM. In addition, the Ki in series [1] was below 200 nM.
In the case of `c1cc2c(cc1OCC1CCSCC1)CCC1(CCN(C3CCC3)CC1)O2` [Example 499], the melting point lay within 117 to 118 °C. Moreover, the Ki on human H3 receptor was below 200 nM. In addition, the Ki in series [1] was below 200 nM.
`OC1(c2ccc3c(c2)COC2(CCN(C4CCC4)CC2)O3)CCC1` [Example 501] yielded a melting point of 64 to 66 °C. The Ki at human H3 receptor was below 200 nM. In series [1], the Ki was below 200 nM.
Consider `COc1ccc(/C=C/c2ccc3c(c2)COC2(CCN(C4CCC4)CC2)O3)cn1` [Example 502], for which the melting point fell in the range of 144 to 146 °C. The Ki on human H3 receptor was below 200 nM. Moreover, the Ki in series [1] is below 200 nM.
For the compound `COc1ncc(Oc2ccc3c(c2)CCC2(CCN(C4CCC4)CC2)O3)cn1` [Example 503], the melting point lay in the range of 227 to 229 °C. Also, at human H3 receptor, the Ki was below 200 nM. In series [1], the Ki was below 200 nM.
`COc1ccc(C(O)c2ccc3c(c2)COC2(CCN(C4CCC4)CC2)O3)cn1` (stereo not drawn) [Example 504] yielded a melting point of 78 to 80 °C. Moreover, the Ki at human H3 receptor is below 200 nM. The Ki in series [1] was below 200 nM.
For `OC1(c2ccc3c(c2)COC2(CCN(C4CCC4)CC2)O3)COC1` [Example 505], the melting point was 180 to 183 °C. For the same compound, on human H3 receptor, the Ki was below 200 nM. The Ki in series [1] was below 200 nM.
On to `OC1(c2ccc3c(c2)COC2(CCN(C4CCC4)CC2)O3)CCOC1` (stereo not drawn) [Example 506], for which the melting point came out at 50 °C. In addition, the Ki at human H3 receptor is below 200 nM. In addition, the Ki in series [1] is below 200 nM.
`c1cc2c(cc1C1CCOC1)COC1(CCN(C3CCC3)CC1)O2` (stereo not drawn) [Example 507] came in with a melting point of 249 to 250 °C. For the same compound, the Ki at human H3 receptor is below 200 nM. The Ki in series [1] was below 200 nM.
Consider `OC(c1ccc(Cl)nc1)c1ccc2c(c1)COC1(CCN(C3CCC3)CC1)O2` (stereo not drawn) [Example 508], for which the melting point lay in the range of 79 to 81 °C. In addition, the Ki at human H3 receptor was below 200 nM. Also, in series [1], the Ki was below 200 nM.
As for `OC1(c2ccc3c(c2)COC2(CCN(C4CCC4)CC2)O3)CCCC1` [Example 509], the melting point lay in the range of 149 to 151 °C. In addition, at human H3 receptor, the Ki was below 200 nM. The Ki in series [1] is below 200 nM.
The compound `COc1ccc(/C=C/c2ccc3c(c2)COC2(CCN(C4CCC4)CC2)O3)nn1` [Example 510] returned a melting point of 168 to 170 °C. Also, the Ki on human H3 receptor is below 200 nM. Besides, in series [1], the inhibition constant Ki is below 200 nM.
Compound `O=S1(=O)CCC(C(O)c2ccc3c(c2)COC2(CCN(C4CCC4)CC2)O3)CC1` (stereo not drawn) [Example 511] displayed a melting point of 127 to 129 °C. The Ki on human H3 receptor was below 200 nM. For the same compound, the inhibitory constant (Ki) in series [1] was below 200 nM.
The compound `OC1(c2ccc3c(c2)COC2(CCN(C4CCC4)CC2)O3)CCCCC1` [Example 512] gave a melting point of 164 to 165 °C. The Ki at human H3 receptor was below 200 nM. Further, the Ki in series [1] is below 200 nM.
Consider `OC(c1ccc(F)cc1)c1ccc2c(c1)COC1(CCN(C3CCC3)CC1)O2` (stereo not drawn) [Example 513], for which the melting point fell in the range of 58 to 62 °C. Further, the Ki on human H3 receptor is below 200 nM. In series [1], the Ki was below 200 nM.
The compound `CCNC(=O)C1CCC(O)(c2ccc3c(c2)COC2(CCN(C4CCC4)CC2)O3)CC1` (stereo not drawn) [Example 514] gave a melting point of 195 to 196 °C. The Ki on human H3 receptor is below 200 nM. In series [1], the Ki is below 200 nM.
On to `COCCN1CC(COc2ccc3c(c2)CCC2(CCN(C4CCC4)CC2)O3)CC1=O` (stereo not drawn) [Example 515], for which the melting point was in the range of 194 to 196 °C. The Ki on human H3 receptor is below 200 nM. Also, the Ki in series [1] is below 200 nM.
Take `COc1ccc(Cc2ccc3c(c2)COC2(CCN(C4CCC4)CC2)O3)cn1` [Example 516]: the melting point is 229 to 231 °C. Moreover, at human H3 receptor, the Ki is below 200 nM. Moreover, the Ki in series [1] was below 200 nM.
`O=S1(=O)CCC(O)(c2ccc3c(c2)COC2(CCN(C4CCC4)CC2)O3)CC1` [Example 517]: the melting point fell in the range of 240 to 241 °C. On human H3 receptor, the Ki is below 200 nM. Moreover, the Ki in series [1] was below 200 nM.
Turning to `CN1CC(COc2ccc3c(c2)CCC2(CCN(C4CCC4)CC2)O3)CC1=O` (stereo not drawn) [Example 519], the melting point was in the range of 234 to 236 °C. Also, the Ki at human H3 receptor was below 200 nM. The Ki in series [1] was below 200 nM.
